The results in this text go back to US9579319B2 (Redx Pharma PLC, priority 2013, dated 2017).

Read-outs that look alike come from different tables or passages of the source.

The assay relates to Hedgehog signalling pathway. As to the kind of experiment: Gli-reporter NIH3T3 luciferase assay (Hedgehog pathway inhibition). The format is cell-based. Particulars: NIH3T3, Gli-reporter NIH-3T3 cells, recombinant mouse sonic hedgehog, 24 hours, luminescence. The procedure, abridged: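 Mouse NIH3T3 cells with Gli-responsive luciferase reporter, pre-treated 1 h with compound (top final concentration 1 μM, 0.1% DMSO) in 0.5% calf serum medium. Then stimulated with recombinant mouse sonic hedgehog for 24 h at 37° C. Luminescence read-out (OneGLO), triplicates; IC50 reported.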

Where [1] appears, read: read-out: Category (Hedgehog pathway inhibition activity, IC50).

In general, IC50 refers to the concentration at which inhibition is half-maximal. As to `CSc1ccccc1CN(C)C1CCN(c2nnc(-c3ccnn3C)c3ccccc23)CC1` [Example 28, N-methyl-1-[4-(2-methylpyrazol-3-yl)phthalazin-1-yl]-N-[(2-methylsulfanylphenyl)methyl]piperidin-4-amine], under setting [1], the IC50 is below 10 nM.

On to `CN(C(=O)NC(C)(C)C)C1CCN(c2nnc(-c3ccnn3C)c3c2CCC3)CC1` [Example 133, 3-tert-butyl-1-methyl-1-[1-[1-(2-methylpyrazol-3-yl)-6,7-dihydro-5H-cyclopenta[d]pyridazin-4-yl]-4-piperidyl]urea], for which the IC50 (read-out: Gli luc IC50) fell in the range of 10 to 200 nM.

As for `Cc1c(-c2ccnn2C)nnc(N2CCC(N(C)Cc3ccnnc3)CC2)c1C` [Example 90, 1-[4,5-dimethyl-6-(2-methylpyrazol-3-yl)pyridazin-3-yl]-N-methyl-N-(pyridazin-4-ylmethyl)piperidin-4-amine], the IC50 (read-out: Gli luc IC50) is above 200 nM.

As for `Cn1nccc1-c1nnc(N2CCC(NC(=O)Nc3ccccc3OC(F)(F)F)CC2)c2ccccc12` [Example 25, 1-[1-[4-(2-methylpyrazol-3-yl)phthalazin-1-yl]-4-piperidyl]-3-[2-(trifluoromethoxy)phenyl]urea], the IC50 under setting [1] is below 10 nM.

As for `CC(C)c1ccccc1CNC1CCN(c2nnc(-c3ccnn3C)c3ccccc23)CC1` [Example 43, N-[(2-isopropylphenyl)methyl]-1-[4-(2-methylpyrazol-3-yl)phthalazin-1-yl]piperidin-4-amine], the IC50 under setting [1] is 10 to 200 nM.

With `Cn1nccc1-c1nnc(N2CCC(NCc3ccc(F)cc3Cl)CC2)c2ccccc12` [Example 19, N-[(2-chloro-4-fluoro-phenyl)methyl]-1-[4-(2-methylpyrazol-3-yl)phthalazin-1-yl]piperidin-4-amine], under setting [1], the IC50 lay within 10 to 200 nM.

For `Cn1nccc1-c1nnc(N2CCC(NCc3ccccc3C(F)(F)F)CC2)c2ccccc12` [Example 40, 1-[4-(2-methylpyrazol-3-yl)phthalazin-1-yl]-N-[[2-(trifluoromethyl)phenyl]methyl]piperidin-4-amine], under setting [1], the IC50 is below 10 nM.

For the molecule `Cc1c(-c2ccnn2C)nnc(N2CCC(N(C)C(=O)Nc3ccc(F)cc3)CC2)c1C` [Example 113, 1-[1-[4,5-dimethyl-6-(2-methylpyrazol-3-yl)pyridazin-3-yl]-4-piperidyl]-3-(4-fluorophenyl)-1-methyl-urea], the IC50 (read-out: Gli luc IC50) was above 200 nM.

For the molecule `CN(Cc1ncccc1C(F)(F)F)C1CCN(c2nnc(-c3ccnn3C)c3ccccc23)CC1` [Example 147, N-methyl-1-[4-(2-methylpyrazol-3-yl)phthalazin-1-yl]-N-[[3-(trifluoromethyl)-2-pyridyl]methyl]piperidin-4-amine], where the note is “read-out: Gli luc IC50”, the IC50 was 10 to 200 nM.

On to `Cn1nccc1-c1nnc(N2CCC(NCc3cccc(C#N)c3)CC2)c2c1CCC2` [Example 149, 3-[[[1-[1-(2-methylpyrazol-3-yl)-6,7-dihydro-5H-cyclopenta[d]pyridazin-4-yl]-4-piperidyl]amino]methyl]benzonitrile], for which, under “read-out: Gli luc IC50”, the half-inhibitory concentration (IC50) was above 200 nM.

With `CN(Cc1ccc(F)cc1C(F)(F)F)C1CCCN(c2nnc(-c3ccnn3C)c3ccccc23)C1` (stereo not shown) [Example 54, N-[[4-fluoro-2-(trifluoromethyl)phenyl]methyl]-N-methyl-1-[4-(2-methylpyrazol-3-yl)phthalazin-1-yl]piperidin-3-amine], under setting [1], the IC50 was in the range of 200 to 2000 nM.

As to `Cn1nccc1-c1nnc(N2CCC(Nc3ccc(F)cc3C(F)(F)F)CC2)c2ccccc12` [Example 53, N-[4-fluoro-2-(trifluoromethyl)phenyl]-1-[4-(2-methylpyrazol-3-yl)phthalazin-1-yl]piperidin-4-amine], the IC50 under setting [1] was below 10 nM.

Take `CN(Cc1ccncn1)C1CCN(c2nnc(-c3ccnn3C)c3ccccc23)CC1` [Example 86, N-methyl-1-[4-(2-methylpyrazol-3-yl)phthalazin-1-yl]-N-(pyrimidin-4-ylmethyl)piperidin-4-amine]: under “read-out: Gli luc IC50”, the IC50 is above 200 nM.

For the molecule `Cn1nccc1-c1nnc(N2CCC(NCc3ccc(F)cc3C(F)(F)F)CC2)c2c1CCC2` [Example 148, N-[[4-fluoro-2-(trifluoromethyl)phenyl]methyl]-1-[1-(2-methylpyrazol-3-yl)-6,7-dihydro-5H-cyclopenta[d]pyridazin-4-yl]piperidin-4-amine], the IC50 (read-out: Gli luc IC50) is 10 to 200 nM.

For `Cn1nccc1-c1nnc(N2CCC(NC(=O)Nc3ccc(F)cc3C(F)(F)F)CC2)c2cnccc12` [Example 105, 1-[4-fluoro-2-(trifluoromethyl)phenyl]-3-[1-[1-(2-methylpyrazol-3-yl)pyrido[3,4-d]pyridazin-4-yl]-4-piperidyl]urea], the IC50 (read-out: Gli luc IC50) was below 10 nM.

In the case of `Cn1nccc1-c1nnc(N2CCC(NCc3ccncc3C(F)(F)F)CC2)c2ccccc12` [Example 51, 1-[4-(2-methylpyrazol-3-yl)phthalazin-1-yl]-N-[[3-(trifluoromethyl)-4-pyridyl]methyl]piperidin-4-amine], the IC50 under setting [1] fell in the range of 10 to 200 nM.

Turning to `Cc1c(-c2ccnn2C)nnc(N2CCC(N(C)Cc3ccccc3C(F)(F)F)CC2)c1C` [Example 84, 1-[4,5-dimethyl-6-(2-methylpyrazol-3-yl)pyridazin-3-yl]-N-methyl-N-[[2-(trifluoromethyl)phenyl]methyl]piperidin-4-amine], the half-inhibitory concentration (IC50) (read-out: Gli luc IC50) is 10 to 200 nM.

Consider `Cn1nccc1-c1nnc(N2CCC(NCc3ccc(Cl)nc3C(F)(F)F)CC2)c2ccccc12` [Example 44, N-[[6-chloro-2-(trifluoromethyl)-3-pyridyl]methyl]-1-[4-(2-methylpyrazol-3-yl)phthalazin-1-yl]piperidin-4-amine], for which the IC50 under setting [1] was below 10 nM.

Take `Cn1nccc1-c1nnc(N2CCC(NC(=O)Nc3ccc(F)cc3F)CC2)c2ccccc12` [Example 8]: the 50% inhibitory concentration (IC50) runs as follows: under setting [1], below 10 nM; (read-out: Gli Luc nM (IC50)) 0.99 nM.

As for `CCOc1ccccc1CNC1CCN(c2nnc(-c3ccnn3C)c3ccccc23)CC1` [Example 52, N-[(2-ethoxyphenyl)methyl]-1-[4-(2-methylpyrazol-3-yl)phthalazin-1-yl]piperidin-4-amine], under setting [1], the IC50 is 10 to 200 nM.

As to `Cn1nccc1-c1nnc(N2CCC(NC(=O)Nc3ccc(F)cc3F)CC2)c2cnccc12` [Example 104, 1-(2,4-difluorophenyl)-3-[1-[1-(2-methylpyrazol-3-yl)pyrido[3,4-d]pyridazin-4-yl]-4-piperidyl]urea], under “read-out: Gli luc IC50”, the IC50 lay within 10 to 200 nM.

As for `CSc1nccc(CN(C)C2CCN(c3nnc(-c4ccnn4C)c4ccccc34)CC2)n1` [Example 92, N-methyl-1-[4-(2-methylpyrazol-3-yl)phthalazin-1-yl]-N-[(2-methylsulfanylpyrimidin-4-yl)methyl]piperidin-4-amine], for the setting “read-out: Gli luc IC50”, the IC50 was 10 to 200 nM.

As to `CN(Cc1ccccc1OC(F)F)C1CCN(c2nnc(-c3ccnn3C)c3ccccc23)CC1` [Example 12, N-[[2-(difluoromethoxy)phenyl]methyl]-N-methyl-1-[4-(2-methylpyrazol-3-yl)phthalazin-1-yl]piperidin-4-amine], under setting [1], the IC50 lay within 10 to 200 nM.

On to `COc1cccc(NC(=O)NC2CCN(c3nnc(-c4ccnn4C)c4ccccc34)CC2)c1` [Example 24, 1-(3-methoxyphenyl)-3-[1-[4-(2-methylpyrazol-3-yl)phthalazin-1-yl]-4-piperidyl]urea], for which, under setting [1], the IC50 was below 10 nM.

Regarding `CSc1ccccc1CN(C)C1CCN(c2nnc(-c3ccnn3C)c(C)c2C)CC1` [Example 88, 1-[4,5-dimethyl-6-(2-methylpyrazol-3-yl)pyridazin-3-yl]-N-methyl-N-[(2-methylsulfanylphenyl)methyl]piperidin-4-amine], the IC50 (read-out: Gli luc IC50) is above 200 nM.

For the molecule `CN(C1CCN(c2nnc(-c3ccnn3C)c3cccnc23)CC1)S(=O)(=O)c1ccc(F)cc1C(F)(F)F` [Example 134, 4-fluoro-N-methyl-N-[1-[5-(2-methylpyrazol-3-yl)pyrido[2,3-d]pyridazin-8-yl]-4-piperidyl]-2-(trifluoromethyl)benzenesulfonamide], for the setting “read-out: Gli luc IC50”, the IC50 was 10 to 200 nM.

For `Cn1nccc1-c1nnc(N2CCC(NCc3ccccc3S(C)(=O)=O)CC2)c2ccccc12` [Example 115, 1-[4-(2-methylpyrazol-3-yl)phthalazin-1-yl]-N-[(2-methylsulfonylphenyl)methyl]piperidin-4-amine], for the setting “read-out: Gli luc IC50”, the 50% inhibitory concentration (IC50) was in the range of 10 to 200 nM.

As to `CN(Cc1ccc(F)cc1C(F)(F)F)C1CCN(c2nnc(-c3ccnn3C)c3ccccc23)CC1` [Example 78, N-[[4-fluoro-2-(trifluoromethyl)phenyl]methyl]-N-methyl-1-[4-(2-methylpyrazol-3-yl)phthalazin-1-yl]piperidin-4-amine], the IC50 under setting [1] was below 10 nM.

Consider `CN(Cc1ccc(F)cc1C(F)(F)F)C1CCN(c2nnc(-c3ccnn3C)c3cccnc23)CC1` [Example 135, N-[[4-fluoro-2-(trifluoromethyl)phenyl]methyl]-N-methyl-1-[5-(2-methylpyrazol-3-yl)pyrido[2,3-d]pyridazin-8-yl]piperidin-4-amine], for which, where the note is “read-out: Gli luc IC50”, the IC50 is 10 to 200 nM.

On to `Cn1nccc1-c1nnc(N2CCC(N(Cc3ccc(F)cc3C(F)(F)F)C3CC3)CC2)c2ccccc12` [Example 94, N-cyclopropyl-N-[[4-fluoro-2-(trifluoromethyl)phenyl]methyl]-1-[4-(2-methylpyrazol-3-yl)phthalazin-1-yl]piperidin-4-amine], for which, under “read-out: Gli luc IC50”, the IC50 is above 200 nM.

As to `CN(Cc1ccccc1)C1CCN(c2nnc(-c3ccnn3C)c3ccccc23)CC1` [Example 59, N-benzyl-N-methyl-1-[4-(2-methylpyrazol-3-yl)phthalazin-1-yl]piperidin-4-amine], the IC50 under setting [1] fell in the range of 10 to 200 nM.

Consider `Cn1nccc1-c1nnc(N2CCC(NC(=O)Nc3cccc(C#N)c3)CC2)c2ccccc12` [Example 22, 1-(3-cyanophenyl)-3-[1-[4-(2-methylpyrazol-3-yl)phthalazin-1-yl]-4-piperidyl]urea], for which the IC50 under setting [1] is below 10 nM.

Consider `CN(C(=O)Nc1ccc(F)cc1F)C1CCN(c2nnc(-c3ccnn3C)c3ccccc23)CC1` [Example 169, 3-(2,4-difluorophenyl)-1-methyl-1-[1-[4-(2-methylpyrazol-3-yl)phthalazin-1-yl]-4-piperidyl]urea], for which the IC50 (read-out: Gli luc IC50) was below 10 nM.
